# Results reported in patent US12139458B2, “(2,5-dioxopyrrolidin-1-yl)(phenyl)-acetamide derivatives and their use in the treatment of neurological diseases” (UNIWERSYTET JAGIELLONSKI, priority 2019, dated 2024).
# Where two headings read alike, the source gives them in different places.
# What was measured:
# [1] = test system: Ca2+ channel type L (dihydropyridine binding site); assay: Ca2+ channel type L (dihydropyridine binding site) affinity study; conditions: rat cerebral cortex
# Source text: A unique feature of the compound 6 representing compounds of formula (II) according to the invention is the inhibition of calcium currents by blocking the transient receptor potential vanilloid type 1 (TRPV1). This effect has not been disclosed for known AEDs. TRPV1 receptor antagonism may determine the antinociceptive effect of the compounds disclosed herein. The role of the TRPV1 receptor in conduction of pain stimuli has been well documented in specialist literature (Szallasi, A.; Cortright, D. N.; Blum, C. A.; Eid, S. R. Nat. Rev. Drug. Discov. 2007, 6, 357-372). The compounds according to the invention are characterized by a complex mechanism of action, which is not described for known anticonvulsants. It should be emphasized, however, that further in vitro studies may reveal further molecular targets responsible for the pharmacological action of substances being the subject of current patent claim. The results of binding studies (sodium channel, calcium channel) and functional tests (TRPV1 receptor) for compound 6 are shown in Table 3.
# [2] = test system: male white Swiss mice (CD-1); assay: Formalin test (analgesic activity); assay type: in vivo; conditions: Mus musculus, ip, i.p., mice
# Method: The tests were carried out using male white Swiss mice (CD-1) weighing 18-25 g. All procedures were carried out in accordance with Polish and international guidelines on ethics of animal testing, after obtaining appropriate institutional approval. The study group consisted of 8-10 animals. The tested and reference substances were administered intraperitoneally 30 minutes before given test as suspension in 1% aqueous solution of Tween. All tests/models were carried out based on the procedures described in the specialist literature: the formalin test (Beirith, A.; Santos, A. R.; Calixto, J. B.; Rodrigues, A. L.; Creczynski-Pasa, T. B. Eur. J. Pharmacol. 1998, 345, 233-245), the model of capsaicin-induced pain (Mogilski, S.; Kubacka, M.; Redzicka, A.; Kazek, G.; Dudek, M.; Malinka, W.; Filipek, B. Pharmacol. Biochem. Behav. 2015, 133, 99-110), the model of oxaliplatin-induced neuropathic pain—von Frey test (Sałat, K.; Cios, A.; Wyska, E.; Satat, R.; Mogilski, S.; Filipek, B.; Wigȩkowski, K.; Malawska, B. Pharmacol. Biochem. Behav. 2014, 122, 173-181).
# The pain was induced by the subplantar injection of 20 μL of 2.5% formalin solution into the mice right hind paw. The animals were placed in separate, transparent observation chambers for a period of 30 minutes. The measured value was the total licking and biting time of the paw to which the formalin solution was injected. The nociceptive reaction time was calculated for the first 5 minutes after formalin injection (first phase of the test—acute pain) and in the 15-20, 20-25 and 25-30 minutes time intervals after its administration (second phase of the test—inflammatory pain). The observed inhibition of nociceptive reaction—reduction of paw licking and biting time, was interpreted as the analgesic effect of the compound tested. Based on the results obtained, the ED50 dose was calculated (dose that reduces the nociceptive reaction time by 50%). […] Compound 6 was administered at doses of 10 mg/kg, 20 mg/kg and 30 mg/kg.
compound,measurement,setting,value
"O=C(C(c1ccccc1)N1C(=O)CCC1=O)N1CCN(c2cccc(C(F)(F)F)c2)CC1 (racemic) [Compound 6, 1-(2-Oxo-1-phenyl-2-(4-(3-(trifluoromethyl)phenyl)piperazin-1-yl)ethyl)pyrrolidine-2,5-dione]","Inhibition of specific control binding, Ca2+ channel type L (dihydropyridine binding site)",[1]; 10 μM,30.8 (10) %
same,"Inhibition of specific control binding, Ca2+ channel type L (dihydropyridine binding site)",[1]; 100 μM,82.3 (100) %
same,ED50,"[2]; phase I (acute pain, 0-5 min), read-out: ED50 in the first phase of the formalin test",28.5 mg/kg
same,ED50,"[2]; phase II (inflammatory pain, 15-30 min), read-out: ED50 in the second phase of the formalin test",12.4 mg/kg
